Active and inactive are the calls of the source.
Assays:
Format in all cases: functional
[1] = biological target: T1, Apoptotic protease-activating factor 1 (Homo sapiens, UniProt O14727)
T1 sequence (O14727 whole entry): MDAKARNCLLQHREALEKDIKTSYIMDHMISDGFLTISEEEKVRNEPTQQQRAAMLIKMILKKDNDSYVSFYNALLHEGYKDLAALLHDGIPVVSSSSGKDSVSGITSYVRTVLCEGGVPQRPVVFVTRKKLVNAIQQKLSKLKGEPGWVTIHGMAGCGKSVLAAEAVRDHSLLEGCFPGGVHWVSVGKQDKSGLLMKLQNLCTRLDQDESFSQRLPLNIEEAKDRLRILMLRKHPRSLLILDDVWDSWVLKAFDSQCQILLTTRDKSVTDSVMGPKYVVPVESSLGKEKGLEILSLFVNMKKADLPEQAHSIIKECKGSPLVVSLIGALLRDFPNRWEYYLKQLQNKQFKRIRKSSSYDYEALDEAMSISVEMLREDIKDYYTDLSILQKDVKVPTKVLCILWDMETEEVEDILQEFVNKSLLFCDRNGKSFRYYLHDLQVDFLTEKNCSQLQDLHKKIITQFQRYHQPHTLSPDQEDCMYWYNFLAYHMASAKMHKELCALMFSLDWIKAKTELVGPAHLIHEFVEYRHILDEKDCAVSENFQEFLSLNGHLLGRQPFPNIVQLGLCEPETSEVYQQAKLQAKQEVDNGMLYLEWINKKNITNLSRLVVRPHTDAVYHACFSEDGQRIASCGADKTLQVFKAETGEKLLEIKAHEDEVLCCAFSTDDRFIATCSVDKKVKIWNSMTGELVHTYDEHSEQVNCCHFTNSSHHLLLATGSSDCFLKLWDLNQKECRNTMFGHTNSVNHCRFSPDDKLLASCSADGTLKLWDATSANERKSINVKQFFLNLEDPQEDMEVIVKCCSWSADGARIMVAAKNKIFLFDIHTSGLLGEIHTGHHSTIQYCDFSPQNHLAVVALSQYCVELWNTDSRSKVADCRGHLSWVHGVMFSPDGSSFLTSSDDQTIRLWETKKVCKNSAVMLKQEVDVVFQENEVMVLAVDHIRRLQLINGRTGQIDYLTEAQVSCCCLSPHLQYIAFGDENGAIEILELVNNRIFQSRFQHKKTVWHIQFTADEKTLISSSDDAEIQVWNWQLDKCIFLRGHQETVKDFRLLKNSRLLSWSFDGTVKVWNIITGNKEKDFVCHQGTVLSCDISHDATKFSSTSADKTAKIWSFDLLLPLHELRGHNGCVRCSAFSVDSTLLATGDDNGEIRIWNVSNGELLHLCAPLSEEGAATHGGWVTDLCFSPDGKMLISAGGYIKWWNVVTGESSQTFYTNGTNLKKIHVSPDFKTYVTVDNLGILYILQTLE

INS1 = test: INS-1E survival protection against cytokine death – cell-based, luminescence, retest, dose response (AID 449756); conditions: Rattus norvegicus;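 also: cell death triggered by IL-1 beta plus TNF-alpha plus IFN-gamma mixture; protective hits raise ATP signal compared with cytokine alone wells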
[2] = biological target: ALK tyrosine kinase receptor (Homo sapiens, UniProt Q9UM73);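 also: ALK tested as one member of a kinase panel screen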
[3] = biological target: T2, Tyrosine-protein kinase receptor TYRO3 (Homo sapiens, UniProt Q06418);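 also: TYRO3 value obtained as one member of a kinome-wide profiling panel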
T2 sequence (Q06418 whole entry): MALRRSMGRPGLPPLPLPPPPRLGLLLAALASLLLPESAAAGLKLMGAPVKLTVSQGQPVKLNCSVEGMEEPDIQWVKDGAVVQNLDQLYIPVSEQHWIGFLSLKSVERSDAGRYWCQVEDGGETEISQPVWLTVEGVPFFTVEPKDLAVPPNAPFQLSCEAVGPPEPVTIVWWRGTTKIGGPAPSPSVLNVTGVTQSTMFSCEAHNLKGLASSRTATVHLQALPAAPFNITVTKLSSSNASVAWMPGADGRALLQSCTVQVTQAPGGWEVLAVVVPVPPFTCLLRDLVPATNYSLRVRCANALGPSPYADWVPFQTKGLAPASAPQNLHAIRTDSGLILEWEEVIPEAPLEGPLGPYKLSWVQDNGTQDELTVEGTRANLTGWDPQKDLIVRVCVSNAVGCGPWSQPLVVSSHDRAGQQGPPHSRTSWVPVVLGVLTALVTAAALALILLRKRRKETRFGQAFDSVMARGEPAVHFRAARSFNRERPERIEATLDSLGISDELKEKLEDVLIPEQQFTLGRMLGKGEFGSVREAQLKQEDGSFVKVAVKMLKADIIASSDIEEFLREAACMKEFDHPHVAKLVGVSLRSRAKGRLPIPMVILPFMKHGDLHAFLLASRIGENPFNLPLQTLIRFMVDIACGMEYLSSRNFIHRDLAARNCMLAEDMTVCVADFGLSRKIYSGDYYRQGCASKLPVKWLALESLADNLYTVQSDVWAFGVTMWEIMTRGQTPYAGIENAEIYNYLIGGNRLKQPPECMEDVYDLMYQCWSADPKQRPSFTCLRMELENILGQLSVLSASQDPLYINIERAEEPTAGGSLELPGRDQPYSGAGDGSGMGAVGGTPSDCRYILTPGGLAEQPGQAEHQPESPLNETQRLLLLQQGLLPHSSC

[4] = biological target: Death-associated protein kinase 3 (Homo sapiens, UniProt O43293);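 also: measured as one member of a kinome-wide profiling panel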
Chain of Death-associated protein kinase 3 (O43293 whole entry): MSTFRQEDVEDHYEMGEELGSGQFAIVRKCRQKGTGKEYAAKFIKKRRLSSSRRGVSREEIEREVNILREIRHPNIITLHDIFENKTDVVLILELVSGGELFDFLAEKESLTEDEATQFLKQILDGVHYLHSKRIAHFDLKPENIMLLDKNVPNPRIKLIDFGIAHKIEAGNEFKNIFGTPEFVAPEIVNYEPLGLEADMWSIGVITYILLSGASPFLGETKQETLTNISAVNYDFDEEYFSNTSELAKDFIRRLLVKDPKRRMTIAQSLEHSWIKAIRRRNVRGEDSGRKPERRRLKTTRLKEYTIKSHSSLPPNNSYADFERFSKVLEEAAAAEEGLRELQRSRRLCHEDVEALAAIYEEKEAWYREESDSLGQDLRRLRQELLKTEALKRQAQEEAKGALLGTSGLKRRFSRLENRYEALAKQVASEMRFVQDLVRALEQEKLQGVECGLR

[5] = biological target: Mitogen-activated protein kinase 8 (Homo sapiens, UniProt P45983);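 also: value comes from one member of a kinome-wide kinase profiling panel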
[6] = biological target: Tyrosine-protein kinase JAK3 (Homo sapiens, UniProt P52333)
[7] = biological target: Mitogen-activated protein kinase kinase kinase kinase 2 (Homo sapiens, UniProt Q12851);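 also: measured as one member of a kinome-wide kinase panel, with MAP4K2 as the panel entry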
Chain of Mitogen-activated protein kinase kinase kinase kinase 2 (Q12851 whole entry): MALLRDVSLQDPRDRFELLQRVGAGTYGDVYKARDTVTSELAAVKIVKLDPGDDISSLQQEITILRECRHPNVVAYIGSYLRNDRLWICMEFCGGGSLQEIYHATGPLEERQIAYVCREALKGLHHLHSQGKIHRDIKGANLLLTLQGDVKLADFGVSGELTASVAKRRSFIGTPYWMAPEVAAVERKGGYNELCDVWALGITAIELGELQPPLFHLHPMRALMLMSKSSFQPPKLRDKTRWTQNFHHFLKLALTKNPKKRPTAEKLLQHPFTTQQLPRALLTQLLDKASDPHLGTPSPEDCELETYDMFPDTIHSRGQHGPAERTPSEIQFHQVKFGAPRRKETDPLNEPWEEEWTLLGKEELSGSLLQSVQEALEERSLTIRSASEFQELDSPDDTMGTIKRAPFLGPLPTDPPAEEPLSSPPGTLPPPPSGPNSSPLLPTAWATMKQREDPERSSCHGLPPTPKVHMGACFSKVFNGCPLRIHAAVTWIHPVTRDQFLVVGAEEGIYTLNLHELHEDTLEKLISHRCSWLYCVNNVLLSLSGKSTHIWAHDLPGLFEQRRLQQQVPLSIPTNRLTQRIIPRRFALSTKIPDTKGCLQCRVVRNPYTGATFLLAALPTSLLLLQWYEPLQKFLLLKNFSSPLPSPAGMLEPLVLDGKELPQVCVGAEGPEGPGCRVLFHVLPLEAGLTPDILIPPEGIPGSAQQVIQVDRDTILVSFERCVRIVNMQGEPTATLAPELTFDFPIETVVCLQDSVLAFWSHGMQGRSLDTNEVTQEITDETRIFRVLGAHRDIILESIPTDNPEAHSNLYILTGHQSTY

[8] = biological target: Serine/threonine-protein kinase Chk1 (Homo sapiens, UniProt O14757);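 also: measured as one member of a kinome-wide kinase profiling panel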
Chain of Serine/threonine-protein kinase Chk1 (O14757 whole entry): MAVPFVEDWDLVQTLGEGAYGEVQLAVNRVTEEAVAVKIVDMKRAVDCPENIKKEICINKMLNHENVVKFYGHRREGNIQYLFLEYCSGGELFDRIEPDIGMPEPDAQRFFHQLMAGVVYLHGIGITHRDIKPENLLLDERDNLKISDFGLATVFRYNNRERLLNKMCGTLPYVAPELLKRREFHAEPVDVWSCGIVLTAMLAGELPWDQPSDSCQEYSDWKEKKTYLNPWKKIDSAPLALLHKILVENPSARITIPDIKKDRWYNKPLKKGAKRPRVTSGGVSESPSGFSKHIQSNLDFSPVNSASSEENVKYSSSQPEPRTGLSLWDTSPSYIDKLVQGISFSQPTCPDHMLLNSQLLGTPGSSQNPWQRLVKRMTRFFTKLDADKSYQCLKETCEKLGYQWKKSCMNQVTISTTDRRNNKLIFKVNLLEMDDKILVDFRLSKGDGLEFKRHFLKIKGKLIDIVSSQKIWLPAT

[9] = biological target: Vascular endothelial growth factor receptor 2 (Homo sapiens, UniProt P35968)
[10] = biological target: Insulin-like growth factor 1 receptor (Homo sapiens, UniProt P08069); test: Navigating the Kinome. Panel member name: IGF1R
[11] = biological target: Dual specificity tyrosine-phosphorylation-regulated kinase 1B (Homo sapiens, UniProt Q9Y463); test: Navigating the Kinome. Panel member name: DYRK1B
Focal adhesion kinase 1 = Focal adhesion kinase 1 (Homo sapiens, UniProt Q05397);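 also: measured as one member of a kinome panel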
Chain of Focal adhesion kinase 1 (Q05397 whole entry): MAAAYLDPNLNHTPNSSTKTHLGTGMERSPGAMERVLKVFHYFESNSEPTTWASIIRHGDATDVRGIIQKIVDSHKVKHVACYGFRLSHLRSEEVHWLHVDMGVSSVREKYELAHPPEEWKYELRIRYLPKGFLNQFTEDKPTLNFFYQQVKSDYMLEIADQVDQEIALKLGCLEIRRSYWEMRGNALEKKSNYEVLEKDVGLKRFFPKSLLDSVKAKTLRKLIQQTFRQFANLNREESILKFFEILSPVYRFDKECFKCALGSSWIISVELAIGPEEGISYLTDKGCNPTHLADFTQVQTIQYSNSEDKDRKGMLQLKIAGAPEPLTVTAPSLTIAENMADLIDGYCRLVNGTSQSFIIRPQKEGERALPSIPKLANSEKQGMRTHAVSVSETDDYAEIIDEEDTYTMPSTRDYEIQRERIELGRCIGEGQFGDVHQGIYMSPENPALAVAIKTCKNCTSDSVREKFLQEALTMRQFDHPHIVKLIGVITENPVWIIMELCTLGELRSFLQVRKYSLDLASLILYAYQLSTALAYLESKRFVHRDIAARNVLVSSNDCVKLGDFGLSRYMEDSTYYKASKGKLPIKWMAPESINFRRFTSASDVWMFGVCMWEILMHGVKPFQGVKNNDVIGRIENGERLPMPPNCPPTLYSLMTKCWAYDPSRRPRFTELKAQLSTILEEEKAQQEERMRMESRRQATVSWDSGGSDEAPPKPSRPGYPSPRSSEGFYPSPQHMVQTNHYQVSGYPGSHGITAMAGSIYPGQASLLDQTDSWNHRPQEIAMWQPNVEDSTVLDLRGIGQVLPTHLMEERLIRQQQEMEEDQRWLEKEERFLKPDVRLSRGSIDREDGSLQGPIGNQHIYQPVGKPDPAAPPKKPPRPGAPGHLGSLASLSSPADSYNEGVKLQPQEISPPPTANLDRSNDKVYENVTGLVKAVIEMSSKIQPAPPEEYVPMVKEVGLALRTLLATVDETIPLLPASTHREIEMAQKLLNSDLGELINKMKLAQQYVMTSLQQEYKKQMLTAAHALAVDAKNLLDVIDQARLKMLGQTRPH

[12] = biological target: Tyrosine-protein kinase Fyn (Homo sapiens, UniProt P06241)
Chain of Tyrosine-protein kinase Fyn (P06241 whole entry): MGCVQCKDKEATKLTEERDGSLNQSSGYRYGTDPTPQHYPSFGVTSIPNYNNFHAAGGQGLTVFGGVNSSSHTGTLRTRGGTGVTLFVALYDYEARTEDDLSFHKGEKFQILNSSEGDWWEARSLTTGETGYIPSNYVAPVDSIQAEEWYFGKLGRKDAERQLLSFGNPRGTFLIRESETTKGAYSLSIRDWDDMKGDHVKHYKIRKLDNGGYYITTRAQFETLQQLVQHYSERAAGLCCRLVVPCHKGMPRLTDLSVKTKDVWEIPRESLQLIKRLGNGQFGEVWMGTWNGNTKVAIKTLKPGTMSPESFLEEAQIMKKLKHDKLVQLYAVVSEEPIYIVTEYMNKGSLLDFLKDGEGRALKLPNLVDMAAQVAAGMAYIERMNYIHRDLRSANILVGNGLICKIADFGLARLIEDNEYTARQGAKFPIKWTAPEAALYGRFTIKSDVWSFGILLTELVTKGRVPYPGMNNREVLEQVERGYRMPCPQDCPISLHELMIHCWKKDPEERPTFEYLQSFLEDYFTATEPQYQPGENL

[13] = biological target: cAMP-dependent protein kinase catalytic subunit alpha (Homo sapiens, UniProt P17612)
[14] = biological target: Dual specificity protein kinase CLK4 (Homo sapiens, UniProt Q9HAZ1)
Chain of Dual specificity protein kinase CLK4 (Q9HAZ1 whole entry): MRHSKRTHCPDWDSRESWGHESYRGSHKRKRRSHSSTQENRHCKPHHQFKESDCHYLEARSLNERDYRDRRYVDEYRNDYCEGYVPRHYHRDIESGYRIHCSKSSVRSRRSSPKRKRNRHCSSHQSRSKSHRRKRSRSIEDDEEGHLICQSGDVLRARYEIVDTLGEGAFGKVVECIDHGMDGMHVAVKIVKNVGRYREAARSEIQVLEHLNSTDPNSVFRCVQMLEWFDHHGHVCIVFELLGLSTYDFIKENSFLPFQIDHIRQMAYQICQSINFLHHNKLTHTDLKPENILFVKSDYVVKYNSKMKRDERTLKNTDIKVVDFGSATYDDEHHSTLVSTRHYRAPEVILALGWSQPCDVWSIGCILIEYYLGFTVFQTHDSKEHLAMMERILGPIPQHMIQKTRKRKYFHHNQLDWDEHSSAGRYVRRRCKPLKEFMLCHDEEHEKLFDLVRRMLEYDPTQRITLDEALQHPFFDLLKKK

[15] = biological target: Macrophage colony-stimulating factor 1 receptor (Homo sapiens, UniProt P07333);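 also: value comes from the Navigating the Kinome screening panel, CSF1R member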
Chain of Macrophage colony-stimulating factor 1 receptor (P07333 whole entry): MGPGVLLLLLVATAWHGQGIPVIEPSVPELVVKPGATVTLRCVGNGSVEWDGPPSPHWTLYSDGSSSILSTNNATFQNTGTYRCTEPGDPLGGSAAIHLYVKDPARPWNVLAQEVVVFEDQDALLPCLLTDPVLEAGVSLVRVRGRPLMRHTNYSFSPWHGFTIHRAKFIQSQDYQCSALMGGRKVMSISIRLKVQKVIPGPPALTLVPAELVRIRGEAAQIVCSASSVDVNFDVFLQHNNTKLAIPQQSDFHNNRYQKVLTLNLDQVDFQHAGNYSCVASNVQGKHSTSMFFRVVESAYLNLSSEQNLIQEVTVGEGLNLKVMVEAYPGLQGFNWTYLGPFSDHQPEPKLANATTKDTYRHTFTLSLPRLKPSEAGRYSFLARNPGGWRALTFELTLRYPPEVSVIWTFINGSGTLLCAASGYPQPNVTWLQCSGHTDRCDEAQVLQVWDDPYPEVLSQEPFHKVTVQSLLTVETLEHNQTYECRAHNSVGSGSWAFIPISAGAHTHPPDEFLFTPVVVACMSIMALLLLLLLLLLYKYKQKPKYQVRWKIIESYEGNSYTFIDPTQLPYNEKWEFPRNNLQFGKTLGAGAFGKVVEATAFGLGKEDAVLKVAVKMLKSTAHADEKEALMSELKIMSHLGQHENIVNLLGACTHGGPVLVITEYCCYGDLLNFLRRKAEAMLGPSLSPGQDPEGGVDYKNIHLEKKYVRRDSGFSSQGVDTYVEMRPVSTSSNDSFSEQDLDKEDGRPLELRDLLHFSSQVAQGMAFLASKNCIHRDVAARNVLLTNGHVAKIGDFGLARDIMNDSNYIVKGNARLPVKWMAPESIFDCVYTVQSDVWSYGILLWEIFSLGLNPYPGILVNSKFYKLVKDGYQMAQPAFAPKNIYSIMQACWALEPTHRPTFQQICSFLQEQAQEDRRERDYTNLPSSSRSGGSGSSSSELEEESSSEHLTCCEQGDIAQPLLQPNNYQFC

Structure (SMILES) | IC50 [1] | AC50 (INS1) | Ki [2] | Ki [3] | Ki [4] | Ki [5] | Ki [6] | Ki [7] | Ki [8] | Ki [9] | Ki [10] | Ki [11] | Ki (Focal adhesion kinase 1) | Ki [12] | Ki [13] | Ki [14] | Ki [15]
CCCNC(=O)c1c(N)n(CC2CCCO2)c2nc3ccccc3nc12 (stereo not given) | 58600 nM (active) | – | – | – | – | – | – | – | – | – | – | – | – | – | – | – | –
CC(C)(C)c1cc[n+](C2=C([N-]S(=O)(=O)c3cccs3)C(=O)c3ccccc3C2=O)cc1 | – | 2040 nM (active) | – | – | – | – | – | – | – | – | – | – | – | – | – | – | –
COc1c(-c2nc3ccccc3[nH]2)c(O)cc2oc(C)cc(=O)c12 | – | – | 1260 nM (active) | 316 nM (active) | 2510 nM (active) | 631 nM (active) | 3980 nM (active) | 501 nM (active) | 39.8 nM (active) | 2510 nM (active) | > 2510 nM (inactive) | 398 nM (active) | 2510 nM (active) | 2000 nM (active) | 501 nM (active) | 79.4 nM (active) | 2000 nM (active)
COC(=O)c1c(N)nc2ccccn12 | – | – | 25100 nM (active) | 25100 nM (active) | 50100 nM (active) | 7940 nM (active) | – | 50100 nM (active) | – | 25100 nM (active) | – | 20000 nM (active) | 79400 nM (active) | – | 10000 nM (active) | 3980 nM (active) | 79400 nM (active)
CCc1ccc(S(=O)(=O)/N=C2\C=C(Nc3ccc(O)cc3)C(=O)c3ccccc32)cc1 | 1970 nM (active) | 981 nM (active) | – | – | – | – | – | – | – | – | – | – | – | – | – | – | –
Cc1ccc(F)c(NC(=O)Nc2ccc(-c3cccc4[nH]nc(N)c34)cc2)c1 [LINIFANIB] | – | – | – | > 3160 nM (inactive) | – | – | > 5010 nM (inactive) | – | > 3160 nM (inactive) | – | > 2510 nM (inactive) | – | – | > 6310 nM (inactive) | – | – | –
